Where two headings read alike, the source gives them in different places.
What was measured:
Caco-2 cells [1] = details: cited from earlier work
[2] = especially under light exposure; cited from earlier work
Caco-2 cell monolayer = type: in vitro ADME, human; details: for Pa-b as percent of control: pH 6.8, 37 °C
[3] = Stability of transport study solutions in HBSS at 37 °C; type: physicochemical; details: HBSS pH 6.8, 37 °C water bath, 0, 1, 2, 4 and 6 hour, UPLC-MS/MS
Caco-2 cells [4] = experiment: Marker compounds hydrolysis and metabolism in Caco-2 transport study; type: in vitro ADME, human; details: Caco-2 transport studies; for glucuronidation and sulfation metabolites: UPLC-MS/MS, of marker compounds and their aglycone; for hydrolysis to aglycone: aglycone by UPLC-MS/MS
[5] = type: in vitro ADME, human; details: human, Caco-2, pH 6.8, efflux ratio (Pba/Pab), vectorial transport ratio
MRP2 = MRP2 (Homo sapiens, UniProt Q92887); experiment: Caco-2 transport of isoquercitrin in the presence of MRP2 inhibitor MK 571; type: in vitro ADME
Chain of MRP2 (Q92887 whole entry): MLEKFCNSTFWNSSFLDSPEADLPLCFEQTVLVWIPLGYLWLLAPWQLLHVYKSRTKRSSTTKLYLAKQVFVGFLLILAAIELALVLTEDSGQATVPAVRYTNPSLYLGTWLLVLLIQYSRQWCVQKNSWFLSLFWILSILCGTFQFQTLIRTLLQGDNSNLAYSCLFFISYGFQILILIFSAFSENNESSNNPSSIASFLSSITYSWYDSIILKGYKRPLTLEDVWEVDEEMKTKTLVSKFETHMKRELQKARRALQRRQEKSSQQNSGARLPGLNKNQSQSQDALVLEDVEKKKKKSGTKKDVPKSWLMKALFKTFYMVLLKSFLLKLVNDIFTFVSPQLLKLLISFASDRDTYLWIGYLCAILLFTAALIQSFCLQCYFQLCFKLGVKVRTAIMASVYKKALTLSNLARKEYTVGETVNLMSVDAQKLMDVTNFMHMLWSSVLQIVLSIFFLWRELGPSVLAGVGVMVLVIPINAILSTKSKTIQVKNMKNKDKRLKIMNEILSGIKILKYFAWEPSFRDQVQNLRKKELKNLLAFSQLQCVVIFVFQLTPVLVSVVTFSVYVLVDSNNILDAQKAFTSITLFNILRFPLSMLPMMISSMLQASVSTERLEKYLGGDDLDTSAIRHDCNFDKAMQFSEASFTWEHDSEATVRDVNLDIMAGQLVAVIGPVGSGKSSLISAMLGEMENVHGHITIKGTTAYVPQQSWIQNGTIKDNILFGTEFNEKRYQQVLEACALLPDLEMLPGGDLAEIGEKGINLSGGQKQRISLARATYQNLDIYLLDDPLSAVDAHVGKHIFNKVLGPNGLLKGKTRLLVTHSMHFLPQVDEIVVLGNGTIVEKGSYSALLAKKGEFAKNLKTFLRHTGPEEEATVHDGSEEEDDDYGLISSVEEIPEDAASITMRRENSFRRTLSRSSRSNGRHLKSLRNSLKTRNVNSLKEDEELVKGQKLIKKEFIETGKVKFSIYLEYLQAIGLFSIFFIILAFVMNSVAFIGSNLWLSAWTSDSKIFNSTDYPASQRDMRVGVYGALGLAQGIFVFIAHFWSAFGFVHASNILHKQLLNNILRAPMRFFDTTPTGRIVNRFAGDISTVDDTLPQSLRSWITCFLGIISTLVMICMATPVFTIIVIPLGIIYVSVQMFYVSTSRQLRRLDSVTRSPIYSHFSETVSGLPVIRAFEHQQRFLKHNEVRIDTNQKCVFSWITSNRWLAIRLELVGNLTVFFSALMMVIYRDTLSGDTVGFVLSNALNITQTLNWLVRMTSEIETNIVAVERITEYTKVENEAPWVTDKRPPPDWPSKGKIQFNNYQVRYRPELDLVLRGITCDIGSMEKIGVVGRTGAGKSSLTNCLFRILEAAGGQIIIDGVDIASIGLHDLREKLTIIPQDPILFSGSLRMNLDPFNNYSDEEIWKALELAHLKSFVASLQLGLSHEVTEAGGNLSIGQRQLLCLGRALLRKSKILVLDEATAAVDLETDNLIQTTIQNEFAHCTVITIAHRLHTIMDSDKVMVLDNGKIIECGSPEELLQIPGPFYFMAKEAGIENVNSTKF

SGLT1 = experiment: Caco-2 transport of isoquercitrin in the presence of phloridzin; type: in vitro ADME, human; details: pure isoquercitrin 10 μM, 50 μM phloridzin
[6] = in product 1 matrix, control pure compound 10 μM
[7] = in product 2 matrix, control pure compound 10 μM
[8] = isoquercitrin in product 2, 50 μM MK 571
[9] = isoquercitrin in product 4, 50 μM MK 571
[10] = pure isoquercitrin 10 μM, 50 μM MK 571 at apical side

For COc1ccc([C@@H]2CC(=O)c3c(O)cc(O[C@@H]4O[C@H](CO[C@@H]5O[C@@H](C)[C@H](O)[C@@H](O)[C@H]5O)[C@@H](O)[C@H](O)[C@H]4O)cc3O2)cc1O [hesperidin], the “permeability (words)” value (Caco-2 cells [1]; HPLC-UV, 120 min transport) is given as “not permeable”.

For Cc1cc(O)c2c(=O)c3c(O)cc(O)c4c5c(O)cc(O)c6c(=O)c7c(O)cc(C)c8c1c2c(c34)c(c78)c65 [hypericin], the “stability in aqueous solutions” value [2] is listed as “highly unstable”.

With O=c1c(O[C@@H]2O[C@H](CO)[C@H](O)[C@H](O)[C@H]2O)c(-c2ccc(O)c(O)c2)oc2cc(O)cc(O)c12 [hyperoside] the “Pa-b compared with control” value (Caco-2 cell monolayer; [6]) was “not altered”, the “Pa-b as percent of control” value (Caco-2 cell monolayer; [7]) was 54% and the “Pa-b as percent of control” value (Caco-2 cell monolayer; in product 4 matrix, control pure compound 10 μM) was 46%. The “stability in experimental solutions (relative peak area as a function of time)” value [3] was “stable”, the “glucuronidation and sulfation metabolites” value (Caco-2 cells [4]) was “not detected” and the hydrolysis to aglycone (Caco-2 cells [4]) was “not hydrolyzed”.

For O=c1c(O[C@@H]2O[C@H](CO)[C@@H](O)[C@H](O)[C@H]2O)c(-c2ccc(O)c(O)c2)oc2cc(O)cc(O)c12 [isoquercitrin], the efflux ratio at 4 h, 10 µM [5] was 7.13, the “Pb-a as percent of control” value (Caco-2 cell monolayer; [6]) was 78% and the “Pb-a as percent of control” value (Caco-2 cell monolayer; [7]) was 42%. For the same molecule, the efflux ratio at 4 h (MRP2; human, Caco-2, with MK 571, 50 µM) was 0.4, the “Pa-b change with MK 571” value (MRP2; [8]) was “didn't increase significantly” and the “Pb-a reduction with MK 571” value (MRP2; [8]) was 1.8 times. The “Pa-b increase with MK 571” value (MRP2; [9]) was 2.9 times, the “Pb-a change with MK 571” value (MRP2; [9]) was “didn't change” and the “Pb-a versus Pa-b” value (MRP2; [9]) was “not statistically different”. For the same molecule, the vectorial transport ratio (MRP2; pure isoquercitrin 10 μM, 50 μM MK 571) was 1, the “Pa-b increase compared with control” value (MRP2; [10]) was 3.2 times and the “Pb-a decrease compared with control” value (MRP2; [10]) was 5.2 times. For the same molecule, the “Pa-b increase compared to the control” value (SGLT1) was 2.9 times, the “difference between Pa-b and Pb-a” value (SGLT1) was “diminished” and the “stability in experimental solutions (relative peak area as a function of time)” value [3] was “stable”. For the same molecule, the “glucuronidation and sulfation metabolites” value (Caco-2 cells [4]) was “not detected” and the hydrolysis to aglycone (Caco-2 cells [4]) was “not hydrolyzed”.

For C[C@H]1O[C@H](OC[C@H]2O[C@@H](Oc3c(-c4ccc(O)cc4)oc4cc(O)cc(O)c4c3=O)[C@H](O)[C@@H](O)[C@@H]2O)[C@@H](O)[C@@H](O)[C@@H]1O [kaempferol-3-rutinoside], the “efflux ratio (Pba/Pab)” value (Caco-2 cell monolayer; Caco-2, pH 6.8) was 3.5 and the vectorial transport ratio (Caco-2 cell monolayer; human, Caco-2, 4 h, 50 µM, pH 6.8) was 0.16.

In the case of C[C@@H]1O[C@@H](O[C@H]2[C@H](Oc3cc(O)c4c(c3)O[C@H](c3ccc(O)cc3)CC4=O)O[C@H](CO)[C@@H](O)[C@@H]2O)[C@H](O)[C@H](O)[C@H]1O [naringin], the permeability (Caco-2 cells [1]; Caco-2) is given as 0.08 ×10⁻⁶ cm/s and the “permeability (words)” value (Caco-2 cells [1]; Caco-2) is given as “not permeable”.

For C[C@@H]1O[C@@H](OC[C@H]2O[C@@H](Oc3c(-c4ccc(O)c(O)c4)oc4cc(O)cc(O)c4c3=O)[C@H](O)[C@@H](O)[C@@H]2O)[C@H](O)[C@H](O)[C@H]1O [rutin], the “glucuronidation and sulfation metabolites” value (Caco-2 cells [4]) was “not detected” and the hydrolysis to aglycone (Caco-2 cells [4]) was “not hydrolyzed”.

From publication PMC2919490 (Journal of agricultural and food chemistry, 2010)
